Where two headings read alike, the source gives them in different places.
How the values were obtained:
[1] = test system: mixed bacteria on fresh hide samples; set-up: Growth/Days 2 / Growth/Days 4: key to the marks not given beside the values; conditions: for Growth/Days 1: day 1; for Growth/Days 2: day 2; for Growth/Days 4: day 4;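 as to all read-outs here: fresh hide pieces laid on inhibitor-containing nutrient agar supplemented with 0.5% Azocoll, incubated at 30 °C, then scored for growth of bacteria originating from the hide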
[2] = test system: collagenase; conditions: for Collagenase Activity/Days 1: day 1; for Collagenase Activity/Days 2: day 2; for Collagenase Activity/Days 4: day 4; for Collagenase Activity/Days 7: day 7;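 as to all read-outs here: nutrient agar containing 0.5% Azocoll with inhibitor, topped by a fresh hide piece, kept at 30 °C, collagenase from hide bacteria scored visually as clearing zone around growth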
Description: Nutrient agar amended with 0.5% AZOCOLL was used as the test medium to study collagenase activity. The nutrient agar was prepared and autoclaved and then was cooled to 55° C. Azocol was added to give a final concentration of 0.5%. […] Fresh hides were obtained from a tannery and were cut into pieces of approximately 2 cm square. One 2×2 cm hide sample was placed on top of the agar containing the inhibitors. Treated samples were incubated at 30° C. and evaluated after 24 hours, 2 days, 3 or 4 days and 7 days for collagenase activity and also for the growth of the bacteria. The bacteria from the hides secreted collagenase into the medium as they grew to degrade the collagen in the azocoll medium and collagenase activity was determined by visual inspection of the clear zone around the bacteria

O=C([O-])CN(CCN(CC(=O)O)CC(=O)O)CC(=O)[O-].[Na+].[Na+] [Na2EDTA, ethylenediaminetetraacetic acid disodium salt]
Growth/Days 1 ([1]; Conc. 0.025%): ++++
Growth/Days 2 ([1]; Conc. 0.025%): ++++
Growth/Days 4 ([1]; Conc. 0.025%): ++++
Growth/Days 1 ([1]; Conc. 0.05%): ++++
Growth/Days 2 ([1]; Conc. 0.05%): ++++
Growth/Days 4 ([1]; Conc. 0.05%): ++++
Growth/Days 1 ([1]; Conc. 0.075%): ++++
Growth/Days 2 ([1]; Conc. 0.075%): ++++
Growth/Days 4 ([1]; Conc. 0.075%): ++++
Growth/Days 1 ([1]; Conc. 0.1%): ++
Growth/Days 2 ([1]; Conc. 0.1%): ++++
Growth/Days 4 ([1]; Conc. 0.1%): ++++
Growth/Days 1 ([1]; Conc. 0.2%): 0
Growth/Days 2 ([1]; Conc. 0.2%): +++
Growth/Days 4 ([1]; Conc. 0.2%): ++++
Growth/Days 1 ([1]; Conc. 0.3%): 0
Growth/Days 2 ([1]; Conc. 0.3%): +++
Growth/Days 4 ([1]; Conc. 0.3%): ++++
Growth/Days 1 ([1]; Conc. 0.4%): 0
Growth/Days 2 ([1]; Conc. 0.4%): +++
Growth/Days 4 ([1]; Conc. 0.4%): ++++
Growth/Days 1 ([1]; Conc. 0.5%): 0
Growth/Days 2 ([1]; Conc. 0.5%): +++
Growth/Days 4 ([1]; Conc. 0.5%): ++++
Collagenase Activity/Days 1 ([2]; Conc. 0.025%): ++++
Collagenase Activity/Days 2 ([2]; Conc. 0.025%): ++++
Collagenase Activity/Days 4 ([2]; Conc. 0.025%): ++++
Collagenase Activity/Days 7 ([2]; Conc. 0.025%): ++++
Collagenase Activity/Days 1 ([2]; Conc. 0.05%): 0
Collagenase Activity/Days 2 ([2]; Conc. 0.05%): +++
Collagenase Activity/Days 4 ([2]; Conc. 0.05%): ++++
Collagenase Activity/Days 7 ([2]; Conc. 0.05%): ++++
Collagenase Activity/Days 1 ([2]; Conc. 0.075%): +
Collagenase Activity/Days 2 ([2]; Conc. 0.075%): +++
Collagenase Activity/Days 4 ([2]; Conc. 0.075%): ++++
Collagenase Activity/Days 7 ([2]; Conc. 0.075%): ++++
Collagenase Activity/Days 1 ([2]; Conc. 0.1%): 0
Collagenase Activity/Days 2 ([2]; Conc. 0.1%): +
Collagenase Activity/Days 4 ([2]; Conc. 0.1%): +++
Collagenase Activity/Days 7 ([2]; Conc. 0.1%): +++
Collagenase Activity/Days 1 ([2]; Conc. 0.2%): 0
Collagenase Activity/Days 2 ([2]; Conc. 0.2%): 0
Collagenase Activity/Days 4 ([2]; Conc. 0.2%): 0
Collagenase Activity/Days 7 ([2]; Conc. 0.2%): +
Collagenase Activity/Days 1 ([2]; Conc. 0.3%): 0
Collagenase Activity/Days 2 ([2]; Conc. 0.3%): 0
Collagenase Activity/Days 4 ([2]; Conc. 0.3%): 0
Collagenase Activity/Days 7 ([2]; Conc. 0.3%): +
Collagenase Activity/Days 1 ([2]; Conc. 0.4%): 0
Collagenase Activity/Days 2 ([2]; Conc. 0.4%): 0
Collagenase Activity/Days 4 ([2]; Conc. 0.4%): 0
Collagenase Activity/Days 7 ([2]; Conc. 0.4%): 0
Collagenase Activity/Days 1 ([2]; Conc. 0.5%): 0
Collagenase Activity/Days 2 ([2]; Conc. 0.5%): 0
Collagenase Activity/Days 4 ([2]; Conc. 0.5%): 0
Collagenase Activity/Days 7 ([2]; Conc. 0.5%): 0

O=C([O-])CN(CCN(CC(=O)[O-])CC(=O)O)CC(=O)[O-].[Na+].[Na+].[Na+] [Na3EDTA, ethylenediaminetetraacetic acid trisodium salt]
Growth/Days 1 ([1]; Conc. 0.025%): ++++
Growth/Days 2 ([1]; Conc. 0.025%): ++++
Growth/Days 4 ([1]; Conc. 0.025%): ++++
Growth/Days 1 ([1]; Conc. 0.05%): ++++
Growth/Days 2 ([1]; Conc. 0.05%): ++++
Growth/Days 4 ([1]; Conc. 0.05%): ++++
Growth/Days 1 ([1]; Conc. 0.075%): ++++
Growth/Days 2 ([1]; Conc. 0.075%): ++++
Growth/Days 4 ([1]; Conc. 0.075%): ++++
Growth/Days 1 ([1]; Conc. 0.1%): ++++
Growth/Days 2 ([1]; Conc. 0.1%): ++++
Growth/Days 4 ([1]; Conc. 0.1%): ++++
Growth/Days 1 ([1]; Conc. 0.2%): ++++
Growth/Days 2 ([1]; Conc. 0.2%): ++++
Growth/Days 4 ([1]; Conc. 0.2%): ++++
Growth/Days 1 ([1]; Conc. 0.3%): +++
Growth/Days 2 ([1]; Conc. 0.3%): +++
Growth/Days 4 ([1]; Conc. 0.3%): +++
Growth/Days 1 ([1]; Conc. 0.4%): ++++
Growth/Days 2 ([1]; Conc. 0.4%): ++++
Growth/Days 4 ([1]; Conc. 0.4%): ++++
Growth/Days 1 ([1]; Conc. 0.5%): ++
Growth/Days 2 ([1]; Conc. 0.5%): ++++
Growth/Days 4 ([1]; Conc. 0.5%): ++++
Collagenase Activity/Days 1 ([2]; Conc. 0.025%): ++++
Collagenase Activity/Days 2 ([2]; Conc. 0.025%): ++++
Collagenase Activity/Days 4 ([2]; Conc. 0.025%): ++++
Collagenase Activity/Days 7 ([2]; Conc. 0.025%): ++++
Collagenase Activity/Days 1 ([2]; Conc. 0.05%): ++
Collagenase Activity/Days 2 ([2]; Conc. 0.05%): +++
Collagenase Activity/Days 4 ([2]; Conc. 0.05%): ++++
Collagenase Activity/Days 7 ([2]; Conc. 0.05%): ++++
Collagenase Activity/Days 1 ([2]; Conc. 0.075%): 0
Collagenase Activity/Days 2 ([2]; Conc. 0.075%): +
Collagenase Activity/Days 4 ([2]; Conc. 0.075%): +++
Collagenase Activity/Days 7 ([2]; Conc. 0.075%): ++++
Collagenase Activity/Days 1 ([2]; Conc. 0.1%): 0
Collagenase Activity/Days 2 ([2]; Conc. 0.1%): +
Collagenase Activity/Days 4 ([2]; Conc. 0.1%): +++
Collagenase Activity/Days 7 ([2]; Conc. 0.1%): +++
Collagenase Activity/Days 1 ([2]; Conc. 0.2%): 0
Collagenase Activity/Days 2 ([2]; Conc. 0.2%): 0
Collagenase Activity/Days 4 ([2]; Conc. 0.2%): ++
Collagenase Activity/Days 7 ([2]; Conc. 0.2%): +++
Collagenase Activity/Days 1 ([2]; Conc. 0.3%): 0
Collagenase Activity/Days 2 ([2]; Conc. 0.3%): 0
Collagenase Activity/Days 4 ([2]; Conc. 0.3%): +
Collagenase Activity/Days 7 ([2]; Conc. 0.3%): ++
Collagenase Activity/Days 1 ([2]; Conc. 0.4%): 0
Collagenase Activity/Days 2 ([2]; Conc. 0.4%): 0
Collagenase Activity/Days 4 ([2]; Conc. 0.4%): 0
Collagenase Activity/Days 7 ([2]; Conc. 0.4%): +
Collagenase Activity/Days 1 ([2]; Conc. 0.5%): 0
Collagenase Activity/Days 2 ([2]; Conc. 0.5%): 0
Collagenase Activity/Days 4 ([2]; Conc. 0.5%): 0
Collagenase Activity/Days 7 ([2]; Conc. 0.5%): +
